# Laboratory results as given in paper PMC11403612, “Preparation and Preclinical Characterization of a Simple Ester for Dual Exogenous Supply of Lactate and Beta-hydroxybutyrate” (Journal of Agricultural and Food Chemistry, 2024).
# Assay: Microsomal stability of LaKe, human
# Format: in vitro ADME
# Procedure: The in vitro stability of LaKe was evaluated following incubation in simulated gastric fluid (SGF), simulated intestinal fluid (SIF), fresh and frozen plasma (rats and humans, respectively), and the presence of hepatocytes (rats and humans) and liver microsomes (rats and humans). At the chosen time points, the mixtures were analyzed by LC-MS/MS to quantify the remaining LaKe and all assays included at least one control compound with known pharmacokinetic properties.
# Hepatocyte stability of LaKe
# Cells: Rat hepatocytes (BioreclamationIVT, M0005); Human hepatocytes (BioreclamationIVT, X008001) Thawing Medium: Williams’ Medium E containing 5% fetal bovine serum and 30% Percoll solution and other […]
# Incubation Medium: Williams’ Medium E (no phenol red) containing 2 mM L-Glutamine and 25 mM HEPES.
# Stop Solution: Acetonitrile containing 200 ng/mL tolbutamide and labetalol as internal standards.
# Dilution Solution: Ultra-pure water.
# Preparation of Quenching Plate: Transfer 125 μL of stop solution (acetonitrile containing 200 ng/mL tolbutamide and 200 ng/mL labetalol as internal standards) in a set of pre-labeled 96-well plates.
# Cryopreserved cells were thawed, isolated and suspended in Incubation Medium, then diluted with pre-warmed Incubation Medium to 0.5 × 10^6 cells/mL. 198 μL of pre-warmed cell suspensions were added in 96-well plates. […]
compound,measurement,setting,value
"CC(O)CCOC(=O)C(C)O (centres unmarked) [LaKe, 3-hydroxybutyl 2-hydroxypropanoate]",LaKe remaining,"human liver microsomes, absence of NADPH, after 60 min",82%
same,turnover in liver microsomes,presence of NADPH,underwent turnover
